The values below come from patent publication US20260364079A1 (Principia Biopharma Inc., priority 2022, published 2026).

One assay deals with Fc receptor signaling. In words: in vitro antibody (IgG, IgE) mediated activation of immune cells via Fc receptor signaling. It counts as cell-based.
In another assay the test system is other TEC family members. Description: preclinical assays of binding persistence, other TEC family members. The settings on record: over time.
In another assay the test system is 251 kinases. In words: broad kinase enzyme inhibition panel. It counts as biochemical. The settings on record: 1 μM; of 251 kinases.
Another assay has as its system human B cell. Description: in vitro human B cell activation. The class given is cell-based.
Another assay has as its system rat Arthus reaction. Description: rat Arthus reaction. The class given is in vivo.
For assay [1] the following is noted: in comparison to first and second generation BTKi; cited from earlier work.

For the molecule `CC(C)(C=C(C#N)C(=O)N1CCC[C@@H](n2nc(-c3ccc(Oc4ccccc4)cc3F)c3c(N)ncnc32)C1)N1CCN(C2COC2)CC1` (mixture of isomers) [rilzabrutinib, (R)-2-[3-[4-amino-3-(2-fluoro-4-phenoxy-phenyl)pyrazolo[3,4-d]pyrimidin-1-yl]piperidine-1-carbonyl]-4-methyl-4-[4-(oxetan-3-yl)piperazin-1-yl]pent-2-enenitrile], the “antibody (IgG, IgE) mediated activation of immune cells via Fc receptor signaling” value with Fc receptor signaling was “blocks antibody (IgG, IgE) mediated activation of immune cells via Fc receptor signaling”. Besides, the “persistence of binding to other TEC family members” value in the assay on other TEC family members is “decayed rapidly over time”. Also, the “number of kinases with >90% inhibition” value with 251 kinases came out at 6 kinases. Further, the “human B cell activation” value with human B cell is on record as “profoundly inhibits human B cell activation”. Moreover, the “effect on rat Arthus reaction” value with rat Arthus reaction is recorded as “blockade of the rat Arthus reaction”. Besides, the “cross-reactivity with other molecules” value in assay [1] was “minimal cross-reactivity with other molecules and is low risk for off-target effects”.
